Laboratory results from ChEMBL document CHEMBL5390203, “Identification of Obscurolide-Type Metabolites and Antifungal Metabolites from the Termite-Associated Streptomyces neopeptinius BYF101” (2023).
≈ marks a conversion by molar mass, not a printed value. Calls of active or inactive are those of the source. The calls are words filed in the database; no cut-off is given here.

Tests used:
Candida albicans = assay: Antifungal activity against Candida albicans SC5314 assessed as fungal growth inhibition incubated for 2 days by broth serial dilution method; type: functional; conditions: for Activity: time 2.0 day
Cryptococcus neoformans = assay: Antifungal activity against Cryptococcus neoformans H99 assessed as fungal growth inhibition incubated for 2 days by broth serial dilution method; type: functional; conditions: H99, 48 h, time 2 day

Row | Structure (SMILES) | Activity (Candida albicans) | MIC (Cryptococcus neoformans) [µg/mL] | MIC (Candida albicans; SC5314, 48 h, time 2 day) [µg/mL]
1 | O=C1CNC(=O)[C@H](Cc2ccccc2)N1 | inactive | 50 (≈ 245 µM) | –
2 | C[C@]1(O)CC(=O)c2c(cc3cccc(O)c3c2O)C1 | inactive | 50 (≈ 194 µM) | –
3 | CC(=O)Nc1ccccc1O | inactive | 50 (≈ 331 µM) | –
4 | O=C1N[C@@H](Cc2ccccc2)C(=O)N2C[C@H](O)C[C@@H]12 | inactive | 50 (≈ 192 µM) | –
5 | Cc1c(C(=O)O)c(O)cc2c1C(=O)c1c(O)cccc1C2=O | inactive | 100 (≈ 335 µM) | –
6 | CC(C)[C@@H]1NC(=O)[C@@H]2CCCN2C1=O | inactive | 100 (≈ 510 µM) | –
7 | C/C=C/[C@H](O)[C@@H]1OC(=O)C[C@H]1Nc1ccc(C(=O)O)cc1 | inactive | 25 (≈ 85.8 µM) | –
8 | C[C@H](O)/C=C/[C@@H]1OC(=O)C[C@H]1Nc1ccc(C(=O)O)cc1 | inactive | 100 (≈ 343 µM) | –
9 | O=c1[nH]c2ccccc2o1 [BENZOXAZOLINONE] | inactive | 25 (≈ 185 µM) | –
10 | CC(C)C[C@@H]1NC(=O)[C@@H]2CCCN2C1=O | inactive | 50 (≈ 238 µM) | –
11 | C[C@@H]1NC(=O)[C@H](Cc2ccccc2)NC1=O | inactive | 100 (≈ 458 µM) | –
12 | CC(=O)NCCc1c[nH]c2ccccc12 [NB-ACETYLTRYPTAMINE] | inactive | 200 (≈ 989 µM) | –
13 | O=C(O)c1c[nH]c2ccccc12 | inactive | 12 (≈ 74.5 µM) | –
14 | CC(=O)CC[C@@H]1OC(=O)C[C@H]1Nc1ccc(C(=O)O)cc1 | – | 50 (≈ 172 µM) | > 100
15 | CC(C)C[C@@H]1NC(=O)CNC1=O | inactive | 25 (≈ 147 µM) | –
16 | OC(Cn1cncn1)(Cn1cncn1)c1ccc(F)cc1F [FLUCONAZOLE] | – | 4 (≈ 13.1 µM) | –
17 | O=C1[C@H](Cc2ccccc2)NC(=O)[C@]2(O)CCCN12 | inactive | 50 (≈ 192 µM) | –
18 | CC(C)C[C@@H]1NC(=O)[C@@H]2C[C@@H](O)CN2C1=O | inactive | 25 (≈ 110 µM) | –
19 | CC(C)C[C@@H]1NC(=O)[C@H](C(C)C)NC1=O | inactive | 50 (≈ 236 µM) | –
20 | Cc1cc(O)cc2cc3c(c(O)c12)C(=O)CC[C@@H]3O | inactive | 50 (≈ 194 µM) | –
21 | Cc1c(C(=O)O)c(O)cc2c1C(=O)c1c(O)cc(O)cc1C2=O | inactive | 100 (≈ 318 µM) | –
